Key:
A549/ATCC = test: NCI sixty human tumor cell line screen, Non-small-cell-lung panel; format: cell-based; settings: NCI protocol
Description: (§1) The in vitro anticancer activity studies for these N-((1-benzyl-1H-1,2,3-triazol-4-yl)methyl) arylamide analogues were carried out at the National Cancer Institute, USA.
(§2) The N-((1-benzyl-1H-1,2,3-triazol-4-yl)methyl)arylamide analogues have been tested at NCI, USA, against sixty human tumor cell lines derived from nine cancer types (leukemia, non-small cell lung cancer, colon cancer, CNS cancer, melanoma cancer, ovarian cancer, renal cancer, prostate cancer and breast cancer). For these compounds results are expressed as growth inhibition (GI50) values as per NCI protocol.

EKVX = test: as above; format: cell-based; settings: NCI protocol
Description: as §1, §2

HOP-62 = test: as above; format: cell-based; settings: HOP-62, Non-small-cell-lung, NCI protocol
Description: as §1, §2

NCI-H226 = test: as above; format: cell-based; settings: NCI protocol
Description: as §1, §2

NCI-H460 = test: as above; format: cell-based; settings: NCI protocol
Description: as §1, §2

NCI-H522 = test: as above; format: cell-based; settings: NCI protocol
Description: as §1, §2

COLO 205 = test: NCI sixty human tumor cell line screen, Colon panel; format: cell-based; settings: COLO 205, Colon, NCI protocol
Description: as §1, §2

HCT-116 = test: as above; format: cell-based; settings: HCT-116, Colon, NCI protocol
Description: as §1, §2

HT29 = test: as above; format: cell-based; settings: HT-29, NCI protocol
Description: as §1, §2

KM12 = test: as above; format: cell-based; settings: NCI protocol
Description: as §1, §2

SW-620 = test: as above; format: cell-based; settings: SW-620, Colon, NCI protocol
Description: as §1, §2

SF-268 = test: NCI sixty human tumor cell line screen, CNS panel; format: cell-based; settings: SF-268, CNS, NCI protocol
Description: as §1, §2

SF-295 = test: NCI sixty human tumor cell line screen, CNS panel; format: cell-based; settings: SF-295, CNS, NCI protocol
Description: as §1, §2

SF-539 = test: NCI sixty human tumor cell line screen, CNS panel; format: cell-based; settings: SF-539, CNS, NCI protocol
Description: as §1, §2

SNB-19 = test: NCI sixty human tumor cell line screen, CNS panel; format: cell-based; settings: SNB-19, CNS, NCI protocol
Description: as §1, §2

SNB-75 = test: NCI sixty human tumor cell line screen, CNS panel; format: cell-based; settings: SNB-75, CNS, NCI protocol
Description: as §1, §2

U251 = test: NCI sixty human tumor cell line screen, CNS panel; format: cell-based; settings: U-251, NCI protocol
Description: as §1, §2

LOX IMVI = test: NCI sixty human tumor cell line screen, Melanoma panel; format: cell-based; settings: NCI protocol
Description: as §1, §2

M14 = test: as above; format: cell-based; settings: NCI protocol
Description: as §1, §2

MDA-MB-435 = test: as above; format: cell-based; settings: MDA-MB-435, Melanoma, NCI protocol
Description: as §1, §2

SK-MEL-28 = test: as above; format: cell-based; settings: SK-MEL-28, Melanoma, NCI protocol
Description: as §1, §2

SK-MEL-2 = test: as above; format: cell-based; settings: SK-MEL-2, Melanoma, NCI protocol
Description: as §1, §2

SK-MEL-5 = test: as above; format: cell-based; settings: SK-MEL-5, Melanoma, NCI protocol
Description: as §1, §2

UACC-62 = test: as above; format: cell-based; settings: UACC-62, Melanoma, NCI protocol
Description: as §1, §2

NCI/ADR-RES = test: NCI sixty human tumor cell line screen, Ovarian panel; format: cell-based; settings: NCI protocol
Description: as §1, §2

OVCAR-3 = test: as above; format: cell-based; settings: OVCAR-3, Ovarian, NCI protocol
Description: as §1, §2

OVCAR-4 = test: as above; format: cell-based; settings: OVCAR-4, Ovarian, NCI protocol
Description: as §1, §2

OVCAR-8 = test: as above; format: cell-based; settings: OVCAR-8, Ovarian, NCI protocol
Description: as §1, §2

SK-OV-3 = test: as above; format: cell-based; settings: SK-OV-3, Ovarian, NCI protocol
Description: as §1, §2

A498 = test: NCI sixty human tumor cell line screen, Renal panel; format: cell-based; settings: NCI protocol
Description: as §1, §2

ACHN = test: as above; format: cell-based; settings: NCI protocol
Description: as §1, §2

CAKI-1 = test: as above; format: cell-based; settings: CAKI-1, Renal, NCI protocol
Description: as §1, §2

RXF 393 = test: as above; format: cell-based; settings: RXF 393, Renal, NCI protocol
Description: as §1, §2

SN12C = test: as above; format: cell-based; settings: NCI protocol
Description: as §1, §2

TK-10 = test: as above; format: cell-based; settings: TK-10, Renal, NCI protocol
Description: as §1, §2

UO-31 = test: as above; format: cell-based; settings: UO-31, Renal, NCI protocol
Description: as §1, §2

DU-145 = test: NCI sixty human tumor cell line screen, Prostate panel; format: cell-based; settings: DU-145, Prostate, NCI protocol
Description: as §1, §2

PC-3 = test: as above; format: cell-based; settings: PC-3, Prostate, NCI protocol
Description: as §1, §2

BT-549 = test: NCI sixty human tumor cell line screen, Breast panel; format: cell-based; settings: BT-549, Breast, NCI protocol
Description: as §1, §2

MDA-MB-31/ATCC = test: as above; format: cell-based; settings: NCI protocol
Description: as §1, §2

MDA-MB-468 = test: as above; format: cell-based; settings: MDA-MB-468, Breast, NCI protocol
Description: as §1, §2

T-47D = test: as above; format: cell-based; settings: T47D, NCI protocol
Description: as §1, §2

COc1cc(Nc2ncccc2C(=O)NCc2cn(Cc3cccc(Oc4ccccc4)c3)nn2)cc(OC)c1 [Compound 1i, 2-(3,5-Dimethoxyphenylamino)-N-((1-(3-phenoxybenzyl)-1H-1,2,3-triazol-4-yl)methyl) nicotinamide]
GI50 (A549/ATCC): 4.02 µM
GI50 (EKVX): 6.33 µM
GI50 (HOP-62): 6.31 µM
GI50 (NCI-H226): 9.82 µM
GI50 (NCI-H460): 3.98 µM
GI50 (NCI-H522): 3.31 µM
GI50 (COLO 205): 4.12 µM
GI50 (HCT-116): 4.34 µM
GI50 (HT29): 3.88 µM
GI50 (KM12): 3.84 µM
GI50 (SW-620): 3.88 µM
GI50 (SF-268): 5.43 µM
GI50 (SF-295): 4.06 µM
GI50 (SF-539): 4.39 µM
GI50 (SNB-19): 9.64 µM
GI50 (SNB-75): 3.98 µM
GI50 (U251): 4.58 µM
GI50 (LOX IMVI): 5.1 µM
GI50 (M14): 4.8 µM
GI50 (MDA-MB-435): 2.23 µM
GI50 (SK-MEL-28): 4.14 µM
GI50 (SK-MEL-2): 6.69 µM
GI50 (SK-MEL-5): 3.11 µM
GI50 (UACC-62): 3.86 µM
GI50 (NCI/ADR-RES): 3.21 µM
GI50 (OVCAR-3): 3.69 µM
GI50 (OVCAR-4): 5.42 µM
GI50 (OVCAR-8): 5.96 µM
GI50 (SK-OV-3): 4.33 µM
GI50 (A498): 4.18 µM
GI50 (ACHN): 6.9 µM
GI50 (CAKI-1): 6.3 µM
GI50 (RXF 393): 3.77 µM
GI50 (SN12C): 7.41 µM
GI50 (TK-10): 5.16 µM
GI50 (UO-31): 5.25 µM
GI50 (DU-145): 1.05 µM
GI50 (PC-3): 4.74 µM
GI50 (BT-549): 7.16 µM
GI50 (MDA-MB-31/ATCC): 5.35 µM
GI50 (MDA-MB-468): 2.42 µM
GI50 (T-47D): 4.68 µM
melting point: 123 to 125 °C

O=C(NCc1cn(Cc2cccc(Oc3ccccc3)c2)nn1)c1cccnc1NCc1ccc(Cl)cc1 [Compound 1k, 2-(4-Chlorobenzylamino)-N-((1-(3-phenoxybenzyl)-1H-1,2,3-triazol-4-yl)methyl) nicotinamide]
GI50 (A549/ATCC): 3.21 µM
GI50 (EKVX): 3.65 µM
GI50 (HOP-62): 5.69 µM
GI50 (NCI-H226): 3.66 µM
GI50 (NCI-H460): 2.85 µM
GI50 (NCI-H522): 2.18 µM
GI50 (COLO 205): 2.18 µM
GI50 (HCT-116): 3.18 µM
GI50 (HT29): 2.96 µM
GI50 (KM12): 3.62 µM
GI50 (SW-620): 4.04 µM
GI50 (SF-268): 4.82 µM
GI50 (SF-295): 2.8 µM
GI50 (SF-539): 2.24 µM
GI50 (SNB-19): 3.91 µM
GI50 (SNB-75): 2.02 µM
GI50 (U251): 2.66 µM
GI50 (LOX IMVI): 3.9 µM
GI50 (M14): 2.49 µM
GI50 (MDA-MB-435): 2.33 µM
GI50 (SK-MEL-28): 2.95 µM
GI50 (SK-MEL-2): 4.44 µM
GI50 (SK-MEL-5): 2.53 µM
GI50 (UACC-62): 2.08 µM
GI50 (NCI/ADR-RES): 2.86 µM
GI50 (OVCAR-3): 3.48 µM
GI50 (OVCAR-4): 3.37 µM
GI50 (OVCAR-8): 3.63 µM
GI50 (SK-OV-3): 3.32 µM
GI50 (A498): 2.12 µM
GI50 (ACHN): 4.03 µM
GI50 (CAKI-1): 4.36 µM
GI50 (RXF 393): 2.19 µM
GI50 (SN12C): 3.44 µM
GI50 (TK-10): 3.7 µM
GI50 (UO-31): 3 µM
GI50 (DU-145): 4 µM
GI50 (PC-3): 2.96 µM
GI50 (BT-549): 2.72 µM
GI50 (MDA-MB-31/ATCC): 2.29 µM
GI50 (MDA-MB-468): 3.44 µM
GI50 (T-47D): 3.2 µM
melting point: 209 to 211 °C
